Experimental data taken from US20110053883A1, “AGENT THAT MODULATES PHYSIOLOGICAL CONDITION OF PESTS, INVOLVED IN INSECT C-JUN AMINO-TERMINAL KINASE ACTIVITY” (SUMITOMO CHEMICAL COMPANY, LIMITED, priority 2005, published 2011).
Read-outs that look alike come from different tables or passages of the source.

Tests used:
[1] = target: aphid c-Jun NH2-terminal kinase (Aphis gossypii, UniProt A0A9P0JGV4); assay: In vitro aphid c-Jun NH2-terminal kinase activity measurement (IMAP fluorescence polarization, peptide substrate); assay type: biochemical, cotton aphid (Aphis gossypii); settings: for inhibition at 10 µM: test compound at final concentration of 10 μM, relative to DMSO, read-out: Activity of inhibiting c-Jun NH2-terminal kinase activity (inhibition degree (%) at 10 μM addition); for IC50: concentrations 100 μM to 0.03 μM, XLfit, read-out: Activity of inhibiting c-Jun NH2-terminal kinase activity (IC50, (μM))
Sequence of aphid c-Jun NH2-terminal kinase (A0A9P0JGV4 entry or part of it): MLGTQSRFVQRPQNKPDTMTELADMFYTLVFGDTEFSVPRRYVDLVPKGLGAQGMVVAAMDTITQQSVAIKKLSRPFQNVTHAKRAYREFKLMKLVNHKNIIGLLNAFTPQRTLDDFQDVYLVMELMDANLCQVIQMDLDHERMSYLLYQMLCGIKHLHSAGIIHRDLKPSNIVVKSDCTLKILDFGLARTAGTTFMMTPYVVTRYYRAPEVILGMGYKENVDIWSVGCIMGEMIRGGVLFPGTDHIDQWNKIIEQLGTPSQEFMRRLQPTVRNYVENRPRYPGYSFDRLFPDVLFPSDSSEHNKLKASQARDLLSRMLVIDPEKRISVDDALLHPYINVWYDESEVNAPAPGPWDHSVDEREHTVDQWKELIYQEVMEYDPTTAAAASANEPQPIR
Method: Selection of a compound which modulates the activity of a c-Jun NH2-terminal kinase was performed in a system where the activity of a c-Jun NH2-terminal kinase which is modulated by adding a test compound to an in vitro reaction system using the aphid c-Jun NH2-terminal kinase prepared in Example 7 is measured and evaluated.
Measurement of the activity of the aphid c-Jun NH2-terminal kinase was performed using IMAP screening Express Kit with progressive Binding system (manufactured by Molecular Device) according to a method described in the manual annexed to the system and employing, as a substrate, a peptide comprising the amino acid sequence of SEQ ID NO: 13 to which biotin was added at the amino-terminus, and a peptide comprising the amino acid sequence of SEQ ID NO: 14 in which the carboxyl-terminus was fluorescently labeled.
For measuring the activity, the activity of the aphid c-Jun NH2-terminal kinase was measured when a test compound dissolved in DMSO was contained to a final concentration of 10 μM. In addition, the activity of the aphid c-Jun NH2-terminal kinase was measured when DMSO was contained in place of a test compound. Then, a ratio (%) of a measured value of the activity of the aphid c-Jun NH2-terminal kinase when a test compound dissolved in DMSO was contained, relative to a measured value of the activity of aphid c-Jun NH2-terminal kinase when DMSO was contained in place of the test compound was calculated, and a value obtained by subtracting the calculated value from 100% was adopted as an inhibition degree (%). Results in each test compound are shown in Table 4 in Example 9 together with results of Example 9.
The activity of aphid c-Jun NH2-terminal kinase was measured when a test compound dissolved in DMSO was contained to a final concentration of each concentration of 100 μM, 30 μM, 10 μM, 3 μM, 1 μM, 0.3 μM, 0.1 μM or 0.03 μM. IC50 (μM) was calculated from the result of each concentration at each test compound using a concentration-dependent test analyzing software XL fit (manufactured by idbs). Results are shown in Table 5 in Example 10 together with results of Example 9.

Aphis gossypii = assay: Pesticidal activity test, rearing on artificial feed containing the test compound; assay type: in vivo; settings: 144 h, read-out: Determination result of pesticidal activity; for pest or weed control at 50 ppm: test compound in DMSO to a final concentration of 50 ppm
Method: A sterilized artificial feed having the following composition (Table 3) was prepared. Then, according to the same manner as that of the method described in Handbook of Insect Rearing Vol. 1 (Elsevier Science Publishers 1985) pp. 35 to pp. 36 except that a test compound dissolved in DMSO to a final concentration of 640 μM was added at 0.5 volume of the artificial feed, and components were mixed, Aphis gossypii was reared. […] Controlling value(%)={1−(Cb×Tai)/(Cai×Tb)}×100 Letters in the equation represent the following meanings. Cb: Number of surviving worms before treatment in non-treated section Cai: Number of surviving worms at observation in non-treated section Tb: Number of surviving worms before treatment in treated section Tai: Number of surviving worms at observation in treated section […]

[2] = test compound in DMSO to a final concentration of 640 μM, in artificial feed, surviving Aphis gossypii six days after rearing
[3] = in artificial feed, surviving Aphis gossypii six days after rearing

`CC(C)(C)n1nc(-c2cccc3ccccc23)c2c(N)ncnc21` [4-amino-1-tert-butyl-3-(1-naphthyl) pyrazolo(3,4-d) pyrimidine, reference compound] showed an inhibition at 10 µM [1] of 68% and a pest or weed control at 640 µM (Aphis gossypii; Aphis gossypii) greater than 30%.
For `O=C1c2ccccc2-c2n[nH]c3cccc1c23` [Anthra[1,9-CD] pyrazole-6(2H)-one, reference compound], the inhibition at 10 µM [1] was 83% and the pest or weed control at 640 µM (Aphis gossypii; [2]) was greater than 30%.
For `O=C1NC(=O)C(c2c[nH]c3ccccc23)=C1c1c[nH]c2ccccc12` [Arcyriarubin A, reference compound], the inhibition at 10 µM [1] was 73% and the pest or weed control at 640 µM (Aphis gossypii; [2]) was greater than 30%.
`O=C1CC2(Oc3ccccc3O2)C(=O)O1` [DB04029] showed an IC50 [1] greater than 100 µM and a pest or weed control at 50 ppm (Aphis gossypii; [3]) of less than 30%.
With `OCC1OC(n2cnc3c(O)ncnc32)C(O)C1O` (stereo not shown) [DC05429] the IC50 [1] was greater than 100 µM and the pest or weed control at 50 ppm (Aphis gossypii; [3]) was less than 30%.
Molecule `Sc1ncnc2nc[nH]c12` [DD08068] has an IC50 [1] greater than 100 µM and a pest or weed control at 50 ppm (Aphis gossypii; [3]) of less than 30%.
For `COc1ccc(C(=O)c2ccccc2)c(O)c1` [DD08100], the IC50 [1] was greater than 100 µM and the pest or weed control at 50 ppm (Aphis gossypii; [3]) was less than 30%.
Work on `CCOC(=O)/C(=C(/F)SCC(C)=O)C(F)(F)F` [DF06524] yielded an IC50 [1] of 47.9 µM and a pest or weed control at 50 ppm (Aphis gossypii; [3]) greater than 30%.
